Experimental data reported in patent US20210393597A1, “TARGETING THE TRANSCRIPTION FACTOR NF-KB WITH HARMINE” (DANA-FARBER CANCER INSTITUTE, INC., priority 2018, published 2021).
Entries after “also recorded” stand apart in the source; their conditions may differ.

Experiments:
Type in all cases: cell-based
[1] = tested on: NF-κB target genes (BIRC3, TNFAIP3, IL-8); experiment: qRT-PCR of NF-κB target gene expression in cancer cells
Description: RNA was isolated using an RNeasy kit (Qiagen, Valencia, Calif.). cDNA was generated using the Taqman reverse transcription kit (Applied Biosystems, Foster City, Calif.). qRT-PCR was performed using Sybr Select or Power Sybr green master mix (Applied Biosystems). Samples were plated in triplicate and run on a 7300 or 7500 real time PCR machine (Applied Biosystems), using the indicated primers (Table 2). Target gene expression was normalized to actin, HPRT, or GAPDH. Data are expressed as mean fold change+/−SEM and are representative of at least two independent biological replicates.

p65 [2] = experiment: Single cell nuclear translocation analysis, HeLa p65-EGFP cells; settings: 1 uM, imaged 18 hours
Description: Hela cells stably expressing EGFP-tagged p65 were imaged for one hour prior to addition of either 1 uM Jak inhibitor 1 or 100 ng/mL TNF, and then for an additional 18 hours. Transmitted light and widefield epifluorescent images were captured at 10 min intervals using a BD Pathway 855 Bioimager with a 20× objective (0.75 NA; Olympus). Imaging was performed in an environmental chamber set to 37θC and 5% CO2. Five fields of view were analyzed per condition and the nuclear translocation of p65-EGFP was manually scored for each cell.

NF-κB [3] = experiment: Dual luciferase reporter assay, OVCAR8 cells transfected with NF-κB dependent reporter; settings: 24 hours
Source text: (§1) Cells were transfected with firefly luciferase plasmids for STAT3 (m67-Luc) or NF-KB-Luc (Stratagene, Santa Clara, Calif.) and a Renilla luciferase plasmid (Promega, Madison, Wis.). The NF-κB-responsive cell line was generated with an NF-κB-responsive reporter plasmid (catalogue no. 219078; Strategene, La Jolla, Calif., incorporated herein by reference). Cells were also co-transfected with a plasmid expressing Renilla luciferase under a constitutive promoter for normalization (pRL-TK plasmid; Promega; Madison, Wis., incorporated herein by reference). Dual luciferase assays were performed as described (Walker et al., 2007 Oncogene, 26: 224-233, incorporated herein by reference).

[4] = tested on: p65 and p50 NF-κB subunits; experiment: Cellular fractionation and immunoblot of NF-κB subunits upon TNF stimulation, OVCAR8 cells; settings: 24 hours, then TNF
Description: (§2) Immunoblots were performed as described (Nelson et al., 2008 Blood, 112: 5095-5102). Nuclear and cytoplasmic fractions were isolated using the Nuclear Extract Kit (Active Motif North America, Carlsbad, Calif.). Antibodies were used recognizing phospho-tyrosine STAT3 (9131), PARP (9542), p65 (8242), RelB (4922) (Cell Signaling; Beverly, Mass.); actin (A-5316) and tubulin (T-5168) (Sigma); and STAT3 (sc-482), p50 (sc-7178), and calnexin (sc-11397) (Santa Cruz Biotechnology; Santa Cruz, Calif.).

U266 and OVCAR8 cells = experiment: Quantitation of viable cell number, U266 and OVCAR8 cells, harmine with additional STAT3 inhibitors; settings: U266, 15 μM harmine, 3 μM TG101348; OVCAR8, 15 μM harmine, 5 μM pimozide; 72 hours
Description: (§3) Cells were treated with the indicated drugs in 96 well plates for 48 to 72 hours. Viable cell number was assessed using ATP-dependent bioluminescence (Cell-TiterGlo; Promega). Data are expressed as average+/−SD of at least two replicates, and are representative of at least two separate experiments.

multiple myeloma cells = experiment: Quantitation of viable cell number (Cell-TiterGlo), multiple myeloma cells
Description: as §3

NF-κB [5] = experiment: NF-κB-dependent luciferase reporter assay in NF-κB-Luc cells (Prestwick library screen and confirmation); settings: drug 1 hour, then TNF stimulation
Source text: as §1
(§4) To identify NF-κB inhibitors, the Prestwick Chemical Library, which contains 1120 bioactive compounds, was screened for activity against cells expressing NF-κB-dependent luciferase (Nelson et al., 2008 Blood, 112(13):5095-102). To confirm the specificity of identified compounds, NF-κB-Luc and STAT3-Luc cells were treated with the indicated doses of drug for one hour followed by stimulation with TNF or IL-6 respectively for 6 hours. Luciferase activity was assessed using the Bright-Glo Luciferase Assay system (Promega).

INA6 cells = experiment: Apoptosis by PARP cleavage immunoblot, INA6 cells; settings: 24 hours
Description: as §2

p65 [6] = experiment: Chromatin immunoprecipitation at NF-κB binding sites of target genes, OVCAR8 cells; settings: harmine pretreatment, TNF 30 minutes
Description: SKBR3 cells stimulated with IL-6 for 30 minutes, OVCAR8 cells treated with harmine for 16 hours and then stimulated with TNF for 30 minutes, or U266 cells treated with Jak inhibitor 1 for 3 hours were analyzed by ChIP. Cross-linking was performed with 1% formaldehyde (0.37% for U266 cells) for 10 min at room temperature, followed by quenching of formaldehyde using 0.125 M glycine. ChIP was performed essentially as described (Nelson et al., 2004 J Biol Chem, 279(52):54724-30). Chromatin was sheared by sonication using a Qsonica Q700 sonicator with a microtip at approximately 75% amplitude. Anti-STAT3 antibody as described above, anti-p65 (Santa Cruz Biotechnology, sc-109), or anti-RNA polymerase II (Santa Cruz Biotechnology, sc-9001) were used. ChIP product was analyzed by qPCR using the following primers: RELB ([…] (SEQ ID NO: 34) and […] (SEQ ID NO: 35)), IL8 ([…] (SEQ ID NO: 36) and […] (SEQ ID NO: 37)), BIRC3 ([…] (SEQ ID NO: 38) and […] (SEQ ID NO: 39)), TNFAIP3 ([…] (SEQ ID NO: 40) and […] (SEQ ID NO: 41)). Data were normalized relative to input and a nonbinding region of the rhodopsin (RHO) gene (Walker et al., 2013 Mol Cell Biol, 33(15):2879-90).

STAT3 = experiment: STAT3-dependent luciferase reporter counterscreen in STAT3-Luc cells; settings: drug one hour, then IL-6 for 6 hours
Description: as §4

[7] = OVCAR8 cells, 24 hours, qRT-PCR

SMILES: O=C(N/N=C/c1ccc([N+](=O)[O-])o1)c1ccc(O)cc1 [nifuroxazide]
- NF-κB target gene expression ([1]; INA-6 MM cells, 22-24 hours): upregulation
- NF-κB target gene expression [1, 7]: upregulation

SMILES: CC(C)(C)c1nc2c3cc[nH]c(=O)c3c3cc(F)ccc3c2[nH]1 [Jak inhibitor 1]
- p65 nuclear translocation (p65 [2]): not significantly altered
- NF-κB target gene expression (IL-8) ([1]; A498 renal carcinoma cells, 24 hours): enhanced
- NF-κB target gene expression ([1]; INA-6 MM cells, 22-24 hours): enhanced
- NF-κB target gene expression ([1]; MDA-MB-468 breast cancer cells, 1 μM, 28 hours): enhanced
- NF-κB target gene expression [1, 7]: enhanced
- NF-κB reporter luciferase activity (NF-κB [3]): enhanced

SMILES: COc1ccc2c(c1)[nH]c1c(C)nccc12 [harmine]
- nuclear accumulation of p65 and p50 [4]: no effect
- cell killing in combination with additional STAT3 inhibitors (relative viable cell number) (U266 and OVCAR8 cells): enhanced killing
- induction of NF-κB target genes induced by Jak inhibitor 1 ([1]; OVCAR8 cells, 24 hours, harmine together with Jak inhibitor 1): completely suppressed
- NF-κB target gene expression [1, 7]: reduced; also recorded: inhibited
- cell killing in combination with Jak inhibitor 1 (relative viable cell number) (multiple myeloma cells; INA6, 5 μM harmine, 0.25 μM Jak inhibitor 1, 72 hours): synergistic cell killing
- viability of multiple myeloma cells (relative viable cell number) (multiple myeloma cells; cells containing activated NF-κB (INA6, U266, MA/11.S), 72 hours): inhibited the viability
- NF-κB-dependent luciferase activity (transcriptional activity of NF-κB) (NF-κB [5]): identified as an NF-κB inhibitor
- NF-κB-dependent luciferase activity (transcriptional activity of NF-κB) (NF-κB [5]; listed as Harmine): inhibitor of NF-κB-dependent luciferase; also recorded: inhibited
- apoptosis measured by PARP cleavage, combination with Jak inhibitor 1 (INA6 cells): enhanced apoptosis
- RNA polymerase II binding at NF-κB target genes (ChIP) (p65 [6]): reduced
- p65 binding at NF-κB binding sites of target genes (ChIP) (p65 [6]): reduced
- STAT3-dependent luciferase activity (STAT3): little effect; also recorded: not inhibiting

SMILES: CCN1/C(=C/C(C)=O)Sc2ccc(O)cc21 [INDY]
- NF-κB target gene expression [1, 7]: did not inhibit
